Patent publication US8883801B2, “Substituted pyrazolo[1,5-a]pyrimidines as mTOR inhibitors” (Merck Sharp & Dohme Corp., priority 2010, dated 2014)
Where two headings read alike, the source gives them in different places.

What was measured:
[1] = tested on: mTORC1 activity: phosphorylated 4E-BP1 Thr37/46 (p4E-BP1 Thr37/46) in PC3 cells; test: mTOR target engagement assay, immunofluorescent cell-based, mTORC1 readout; details: Homo sapiens, PC-3, 1.5 h, 90 min treatment, read-out: P4EBP1 IC50
Description: The target engagement of mTOR kinase inhibitors was evaluated using an immunofluorescent cell-based assay. In this assay, inhibition of mTORC1 activity was measured by the reduction in the level of phosphorylated 4E-BP1Thr37/46 (p4E-BP1 Thr37/46), and inhibition of mTORC2 activity was measured by the reduction of phosphorylated AKTSer473 (pAKT S473).
PC3 cells (prostate tumor cell-line that contains a mutation in the tumor suppressor PTEN, that promotes the phosphorylation and activation of AKT and 4E-BP1) were used in the immunofluorescence assay. PC3 cells were seeded on 384 well plates (black clear bottom, Matrix #4332) overnight. PC3 cells were then treated with 40 μl of the serially diluted test compounds (in 5% fetal bovine serum, F12 medium containing 0.25% DMSO) for ninety minutes at 37° C. The test compound solution was removed, and the plates were washed gently two times with 25 μl phosphate buffered saline (PBS). The cells were fixed by adding 25 μl of Prefer reagent (from Anatech LTD, Cat#414, a glyoxal fixative for fixing proteins within a cell) for sixty minutes followed by three washes with PBS. 5% Goat serum in PBS/0.3% Triton was used to block non-specific binding (60 minutes).
The primary antibodies targeting pAKT S473 and p4E-BP1 Thr37/46 were diluted into PBS/0.3% Triton and incubated with the cells overnight at 4° C. The antibodies targeting pAKTS473 (Cat#4085, Cell signaling) and p4E-BP1 Thr37/46 (Cat#2855, Cell signaling) were used at a 1:100 dilution. Plates were washed three times with PBS/0.1% Tween 20 before adding the secondary antibody at a 1:200 dilution. (goat anti-rabbit containing a fluorescent label, Alexa Fluor 488, Cat#A11008, Invitrogen) in PBS/0.3% Triton for 60 minutes.
Finally, the plates were washed three times with PBS/0.1% Tween 20 and the fluorescent intensity was read using an Analyst HT from Molecular Devices. The fluorescent intensity values from the serially diluted compound treatment group were analyzed using the Xlfit 4 program ([…]) (Formula 205: Y=Bottom+(Top-Bottom)/(1+(IC50/X)^Hillslope) to generate the IC50 value. Where Top is the maximum signal without Compound (+DMSO only) and Bottom represents maximum inhibition. Y is the fluorescence at some compound concentration. The control used to determine the fluorescent intensities for 100% pAKT S473 or 100% phosphorylated p4E-BP1 Thr37/46 were measured from untreated wells that contained only DMSO, instead of test compound.

[2] = target: human mTOR enzyme (Homo sapiens, UniProt P42345); test: HTRF mTOR enzyme (kinase) assay; format: biochemical; details: 5 μM ATP, 0.2 μM GST-S6K, read-out: hMTOR IC50
Sequence of human mTOR enzyme (P42345 1360-2549 limits assumed): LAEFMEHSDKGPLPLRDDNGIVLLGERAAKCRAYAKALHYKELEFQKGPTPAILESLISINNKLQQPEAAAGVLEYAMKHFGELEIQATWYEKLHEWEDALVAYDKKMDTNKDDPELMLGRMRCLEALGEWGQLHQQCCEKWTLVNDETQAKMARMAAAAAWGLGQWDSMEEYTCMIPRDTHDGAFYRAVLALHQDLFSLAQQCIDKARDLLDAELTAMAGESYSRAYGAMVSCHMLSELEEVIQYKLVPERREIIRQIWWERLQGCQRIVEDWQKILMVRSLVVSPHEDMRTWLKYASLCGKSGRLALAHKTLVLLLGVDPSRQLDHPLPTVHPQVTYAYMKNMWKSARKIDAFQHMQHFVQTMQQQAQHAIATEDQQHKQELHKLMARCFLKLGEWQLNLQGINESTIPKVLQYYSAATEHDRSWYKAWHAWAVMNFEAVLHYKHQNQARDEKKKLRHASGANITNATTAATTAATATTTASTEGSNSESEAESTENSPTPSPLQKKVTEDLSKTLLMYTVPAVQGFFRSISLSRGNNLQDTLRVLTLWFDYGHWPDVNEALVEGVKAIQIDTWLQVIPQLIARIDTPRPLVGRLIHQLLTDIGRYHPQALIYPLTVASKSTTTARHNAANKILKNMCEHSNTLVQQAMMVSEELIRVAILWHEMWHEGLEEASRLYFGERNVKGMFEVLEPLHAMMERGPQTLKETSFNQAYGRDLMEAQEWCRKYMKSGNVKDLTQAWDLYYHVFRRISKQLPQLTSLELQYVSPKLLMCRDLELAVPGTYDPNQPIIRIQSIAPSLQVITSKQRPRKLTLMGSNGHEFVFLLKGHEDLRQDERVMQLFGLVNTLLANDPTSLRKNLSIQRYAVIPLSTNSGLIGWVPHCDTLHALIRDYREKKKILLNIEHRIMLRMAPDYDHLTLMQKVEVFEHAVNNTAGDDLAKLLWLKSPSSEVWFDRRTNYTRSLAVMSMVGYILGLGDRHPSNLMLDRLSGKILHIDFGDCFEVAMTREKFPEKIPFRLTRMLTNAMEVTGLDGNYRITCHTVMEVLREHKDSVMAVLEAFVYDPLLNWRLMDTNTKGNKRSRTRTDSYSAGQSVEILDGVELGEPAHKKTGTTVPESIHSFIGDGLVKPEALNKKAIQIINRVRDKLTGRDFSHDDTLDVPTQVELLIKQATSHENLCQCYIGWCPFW

[3] = tested on: mTORC2 activity: phosphorylated AKT Ser473 (pAKT S473) in PC3 cells; test: mTOR target engagement assay, immunofluorescent cell-based, mTORC2 readout; details: Homo sapiens, PC-3, 1.5 h, 90 min treatment
How it was run: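 Read-out is immunofluorescence intensity, normalized to DMSO-only wells and fitted to a sigmoidal Hill equation for IC50. The mTORC1 arm probes phospho-4E-BP1 Thr37/46 and the mTORC2 arm phospho-AKT Ser473.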

IC50 ([1]; rated class) [µM] | IC50 ([2]; rated class) [µM] | IC50 ([3]; rated class) [µM] | IC50 ([1]; numeric value) [µM] | IC50 ([2]; numeric value) [µM] | IC50 ([3]; numeric value) [µM] | Structure (SMILES)
1 to 2 | 0.001 to 0.1 | 0.1 to 1 | – | – | – | COCCO[C@]1(C(=O)N(C)C)CC[C@@H](c2nc3c(-c4cnn(-c5ccccc5)c4)cnn3c(N)c2S(C)(=O)=O)CC1 [Compound 91, (1R,4R)-4-(7-amino-6-(methylsulfonyl)-3-(1-phenyl-1H-pyrazol-4-yl)pyrazolo[1,5-a]pyrimidin-5-yl)-1-(2-methoxyethoxy)-N,N-dimethylcyclohexane-carboxamide]
0.1 to 1 | 0.001 to 0.1 | 0.001 to 0.1 | – | – | – | COCCO[C@]1(C(=O)NCCO)CC[C@@H](c2nc3c(-c4cnn(-c5ccccc5)c4)cnn3c(N)c2S(C)(=O)=O)CC1 [Compound 92, (1R,4R)-4-(7-amino-6-(methylsulfonyl)-3-(1-phenyl-1H-pyrazol-4-yl)pyrazolo[1,5-a]pyrimidin-5-yl)-N-(2-hydroxyethyl)-1-(2-methoxyethoxy)-cyclohexane-carboxamide]
1 to 2 | 0.001 to 0.1 | 0.1 to 1 | – | – | – | COCCNC(=O)[C@]1(OCCOC)CC[C@H](c2nc3c(-c4cnn(-c5ccccc5)c4)cnn3c(N)c2S(C)(=O)=O)CC1 [Compound 93, (1R,4R)-4-(7-amino-6-(methylsulfonyl)-3-(1-phenyl-1H-pyrazol-4-yl)pyrazolo[1,5-a]pyrimidin-5-yl)-1-(2-methoxyethoxy)-N-(2-methoxyethyl)-cyclohexane-carboxamide]
0.1 to 1 | 0.001 to 0.1 | 0.001 to 0.1 | – | – | – | COCCO[C@]1(C(=O)n2ccc(=O)[nH]2)CC[C@@H](c2nc3c(-c4cnn(-c5ccccc5)c4)cnn3c(N)c2S(C)(=O)=O)CC1 [Compound 94, 1-((1R,4R)-4-(7-amino-6-(methylsulfonyl)-3-(1-phenyl-1H-pyrazol-4-yl)pyrazolo[1,5-a]pyrimidin-5-yl)-1-(2-methoxyethoxy)-cyclohexanecarbonyl)-1H-pyrazol-3(2H)-one]
0.1 to 1 | 0.001 to 0.1 | 0.1 to 1 | – | – | – | COCCO[C@]1(C(=O)N2CCC(=O)N2)CC[C@@H](c2nc3c(-c4cnn(-c5ccccc5)c4)cnn3c(N)c2S(C)(=O)=O)CC1 [Compound 95, 1-((1R,4R)-4-(7-amino-6-(methylsulfonyl)-3-(1-phenyl-1H-pyrazol-4-yl)pyrazolo[1,5-a]pyrimidin-5-yl)-1-(2-methoxyethoxy)cyclohexanecarbonyl)-pyrazolidin-3-one]
1 to 2 | 0.001 to 0.1 | 0.1 to 1 | – | – | – | COCCO[C@]1(C(=O)NN2CCOCC2)CC[C@@H](c2nc3c(-c4cnn(-c5ccccc5)c4)cnn3c(N)c2S(C)(=O)=O)CC1 [Compound 96, (1R,4R)-4-(7-amino-6-(methylsulfonyl)-3-(1-phenyl-1H-pyrazol-4-yl)pyrazolo[1,5-a]pyrimidin-5-yl)-1-(2-methoxyethoxy)-N-morpholinocyclohexane-carboxamide]
0.001 to 0.1 | 0.001 to 0.1 | 0.001 to 0.1 | – | – | – | COCCO[C@]1(C(=O)NOCCO)CC[C@@H](c2nc3c(-c4cnn(-c5ccccc5)c4)cnn3c(N)c2S(C)(=O)=O)CC1 [Compound 100]
0.1 to 1 | 0.001 to 0.1 | 0.1 to 1 | – | – | – | COCCO[C@]1(C(=O)NO)CC[C@@H](c2nc3c(-c4ccc(-c5ccccc5)nc4)cnn3c(N)c2C(C)=O)CC1 [Compound 102, (1R,4R)-4-(6-acetyl-7-amino-3-(6-phenylpyridin-3-yl)pyrazolo[1,5-a]pyrimidin-5-yl)-N-hydroxy-1-(2-methoxyethoxy)-cyclohexane-carboxamide]
0.1 to 1 | 0.001 to 0.1 | 0.1 to 1 | – | – | – | COCCO[C@]1(C(=O)NOC)CC[C@@H](c2nc3c(-c4ccc(-c5ccccc5)nc4)cnn3c(N)c2C(C)=O)CC1 [Compound 103, (1R,4R)-4-(6-acetyl-7-amino-3-(6-phenylpyridin-3-yl)pyrazolo[1,5-a]pyrimidin-5-yl)-N-methoxy-1-(2-methoxyethoxy)-cyclohexane-carboxamide]
0.001 to 0.1 | 0.001 to 0.1 | 0.001 to 0.1 | – | – | – | COCCO[C@]1(C(=O)NO)CC[C@@H](c2nc3c(-c4ccc(-c5ccccc5)nc4)cnn3c(N)c2S(C)(=O)=O)CC1 [Compound 104, (1R,4R)-4-(7-amino-6-(methylsulfonyl)-3-(6-phenylpyridin-3-yl)pyrazolo[1,5-a]pyrimidin-5-yl)-N-hydroxy-1-(2-methoxyethoxy)-cyclohexane-carboxamide]
0.1 to 1 | 0.001 to 0.1 | 0.001 to 0.1 | – | – | – | COCCO[C@]1(C(=O)NOC)CC[C@@H](c2nc3c(-c4ccc(-c5ccccc5)nc4)cnn3c(N)c2S(C)(=O)=O)CC1 [Compound 105, (1R,4R)-4-(7-amino-6-(methylsulfonyl)-3-(6-phenylpyridin-3-yl)pyrazolo[1,5-a]pyrimidin-5-yl)-N-methoxy-1-(2-methoxyethoxy)-cyclohexane-carboxamide]
0.1 to 1 | 0.001 to 0.1 | 0.001 to 0.1 | – | – | – | COCCO[C@]1(c2nnc(N)o2)CC[C@@H](c2nc3c(-c4cnn(-c5ccccc5)c4)cnn3c(N)c2S(C)(=O)=O)CC1 [Compound 108, 5-((1R,4R)-4-(7-amino-6-(methylsulfonyl)-3-(1-phenyl-1H-pyrazol-4-yl)pyrazolo[1,5-a]pyrimidin-5-yl)-1-(2-methoxyethoxy)cyclohexyl)-1,3,4-oxadiazol-2-amine]
2 to 5 | 0.001 to 0.1 | 0.1 to 1 | – | – | – | COCCO[C@]1(c2nnc(C)o2)CC[C@@H](c2nc3c(-c4cnn(-c5ccccc5)c4)cnn3c(N)c2S(C)(=O)=O)CC1 [Compound 109]
0.001 to 0.1 | 0.001 to 0.1 | 0.001 to 0.1 | – | – | – | COCCO[C@]1(C(N)=O)CC[C@@H](c2nc3c(-c4cnn(-c5ccccc5)c4)cnn3c(N)c2S(C)(=O)=O)CC1 [Compound 110, (1R,4R)-4-(7-amino-6-(methylsulfonyl)-3-(1-phenyl-1H-pyrazol-4-yl)pyrazolo[1,5-a]pyrimidin-5-yl)-1-(2-methoxyethoxy)cyclohexanecarboxamide]
– | – | – | 0.141 | 0.001 | 0.048 | COCCO[C@]1(C(N)=O)CC[C@@H](c2nc3c(-c4ccc(-c5ccccc5)nc4)cnn3c(N)c2S(C)(=O)=O)CC1 [Compound 111]
0.001 to 0.1 | 0.001 to 0.1 | 0.001 to 0.1 | – | – | – | COCCO[C@]1(C(N)=O)CC[C@@H](c2nc3c(-c4ccc(-c5ncc[nH]5)nc4)cnn3c(N)c2C(C)=O)CC1 [Compound 112, (1R,4R)-4-(3-(6-(1H-imidazol-2-yl)pyridin-3-yl)-6-acetyl-7-aminopyrazolo[1,5-a]pyrimidin-5-yl)-1-(2-methoxyethoxy)cyclohexanecarboxamide]
0.1 to 1 | 0.001 to 0.1 | 0.1 to 1 | – | – | – | COCCO[C@]1(C(N)=O)CC[C@H](c2nc3c(-c4ccc(-c5ncc[nH]5)nc4)cnn3c(N)c2C(C)=O)CC1 [Compound 113, (1S,4S)-4-(3-(6-(1H-imidazol-2-yl)pyridin-3-yl)-6-acetyl-7-aminopyrazolo[1,5-a]pyrimidin-5-yl)-1-(2-methoxyethoxy) cyclohexanecarboxamide]
0.1 to 1 | 0.001 to 0.1 | 0.1 to 1 | – | – | – | COCCO[C@]1(C(=O)NO)CC[C@H](c2nc3c(-c4ccc(-c5ncc[nH]5)nc4)cnn3c(N)c2C(C)=O)CC1 [Compound 114]
0.001 to 0.1 | 0.001 to 0.1 | 0.001 to 0.1 | – | – | – | COCCO[C@]1(C(=O)NO)CC[C@@H](c2nc3c(-c4ccc(-c5ncc[nH]5)nc4)cnn3c(N)c2C(C)=O)CC1 [Compound 115, (1R,4R)-(3-(6-(1H-imidazol-2-yl)pyridin-3-yl)-6-acetyl-7-aminopyrazolo[1,5-a]pyrimidin-5-yl)-N-hydroxy-1-(2-methoxyethoxy)cyclohexane carboxamide]
0.001 to 0.1 | 0.001 to 0.1 | 0.1 to 1 | – | – | – | COCCO[C@]1(C(N)=O)CC[C@@H](c2nc3c(-c4ccc(-c5ncc[nH]5)nc4)cnn3c(N)c2S(C)(=O)=O)CC1 [Compound 116]
